Reference: patent EP4631937A1, “CRYSTALLINE FORM OR AMORPHOUS FORM OF OXOISOINDOLE-5-FORMAMIDE COMPOUND OR SALT AND SOLVATE THEREOF” (Hangzhou Glubio Pharmaceutical Co., Ltd., priority 2022, dated 2024)

Tests used:
[1] = Stability test of crystalline forms (open container at 25°C/92% RH and 40°C/75% RH, sealed container at 60°C, 13 days; XRPD, HPLC, colour); assay type: physicochemical; settings: Solid, 1 week, listed as Crystalline form G; for Chemical purity / Chiral purity: HPLC/SFC
[2] = Pharmacokinetic evaluation in mice by gavage; assay type: in vivo; set-up: AUClast /D: unit not given here; settings: CD1 male mice, oral, 30 mg/kg, 25 mM citrate buffer (pH 3) containing 5% Tween 80
Experimental: CD1 male mice were selected and the test compound was administered orally. The drug concentration in plasma at different time points was quantitatively determined by LC/MS/MS to evaluate the pharmacokinetic characteristics of the test drug in mice.
Experimental materials: CD1 Mouse (male, 20-30 g, 6-8 weeks old, Zhejiang Weitong Lihua).
Blood was collected from the dorsal plantar vein at 0.25 h, 0.5 h, 1 h, 2 h, 4 h, 6 h, 8 h and 24 h after administration, placed in an anticoagulant tube containing EDTA-K2 and mixed, and centrifuged at 4°C and 4000 g for 5 minutes. The drug concentration in blood was determined by LC-MS/MS, and the relevant pharmacokinetic parameters were calculated by the non-compartmental linear/log trapezoidal method using Phoenix WinNonlin 6.3 pharmacokinetic software.

[3] = Stability test of crystalline forms (open container at 25°C/92% RH and 40°C/75% RH, sealed container at 60°C, 13 days; XRPD, HPLC, colour); assay type: physicochemical; settings: initial, before storage; listed as Crystalline form G
Experimental: Placed in a open container at 25°C/92% RH and 40°C/75% RH for 13 days, respectively, or in a sealed container at 60°C for 13 days. […]
(§1) Placed in a open container at 25 °C/92% RH and 40 °C/75% RH for 13 days, respectively, or in a sealed container at 60 °C for 13 days. […]
as §1

[4] = Hygroscopicity test by DVS, with XRPD after DVS; assay type: physicochemical; settings: 25 °C, listed as Crystalline form G
Experimental: • DVS Intrinsic Dynamic Vapor Sorption Instrument • Gas flow rate 200 sccm, furnace temperature 25 °C.
(§2) The hygroscopicity and dehydration behavior of crystalline form B was investigated by DVS. Humidity program: 25 °C, 40-0-95-0-40% RH, dm/dt 0.002, shortest equilibrium time was 60 min, and longest equilibrium time was 360 min. XRPD was also performed on the samples after DVS test to determine whether the crystal transformation occurred.
as §2, with “E” for “B”
as §2, with “G” for “B”

[5] = Simulated tableting experiment (XRPD after pressing); assay type: physicochemical
Experimental: About 10 mg of crystalline form G was weighed and pressed at 2 MPa, 5 MPa or 10 MPa for 5 min. The crystal transformation and the change of crystallinity were investigated by XRPD characterization.

O=C1CC[C@H](N2Cc3cc(C(=O)N[C@H](c4ccc(Cl)cn4)C4CCC4)ccc3C2=O)C(=O)N1 [crystalline form G, N-((S)-(5-chloropyridin-2-yl)(cyclobutyl)methyl)-2-((S)-2,6-dioxopiperidin-3-yl)-1-oxoisoindoline-5-carboxamide]
Chemical purity ([1]; 25 °C/92% RH, open container): 99.4%
Chiral purity ([1]; 25 °C/92% RH, open container): 97.8%
Solid (XRPD) ([1]; 25 °C/92% RH, open container): The crystal form did not change, see Figure 17c
Chemical purity ([1]; 40 °C/75% RH, open container): 99.5%
Chiral purity ([1]; 40 °C/75% RH, open container): 97.8%
Solid (XRPD) ([1]; 40 °C/75% RH, open container): The crystal form did not change, see Figure 17c
Chemical purity ([1]; 60 °C, sealed container): 99.5%
Chiral purity ([1]; 60 °C, sealed container): 97.7%
Solid (XRPD) ([1]; 60 °C, sealed container): The crystal form did not change, see Figure 17c
AUClast /D ([2]; dose-normalised): 306 ± 35
AUC(0-inf) ([2]; mouse, plasma): 10700 ± 2100 ng·h/mL
AUC(0-t) ([2]; mouse, plasma): 9170 ± 1050 ng·h/mL
Cmax ([2]; mouse, plasma): 1370 ± 365 ng/mL
Tmax ([2]; mouse, plasma): 0.42 h
half-life ([2]; mouse, plasma): 8.7 h
Initial purity (HPLC/SFC) Chemical purity [3]: 99.7%
Initial purity (HPLC/SFC) Chiral purity [3]: 97.6%
1st adsorption weight change percentage ([4]; relative humidity 0%): 0.0%
1st desorption weight change percentage ([4]; relative humidity 0%): 0.0%
1st adsorption weight change percentage ([4]; relative humidity 10%): 0.0%
1st desorption weight change percentage ([4]; relative humidity 10%): 0.1%
2nd adsorption weight change percentage ([4]; relative humidity 10%): 0.0%
2nd desorption weight change percentage ([4]; relative humidity 10%): 0.1%
1st adsorption weight change percentage ([4]; relative humidity 20%): 0.0%
1st desorption weight change percentage ([4]; relative humidity 20%): 0.1%
2nd adsorption weight change percentage ([4]; relative humidity 20%): 0.0%
2nd desorption weight change percentage ([4]; relative humidity 20%): 0.1%
1st adsorption weight change percentage ([4]; relative humidity 30%): 0.1%
1st desorption weight change percentage ([4]; relative humidity 30%): 0.2%
2nd adsorption weight change percentage ([4]; relative humidity 30%): 0.1%
2nd desorption weight change percentage ([4]; relative humidity 30%): 0.2%
1st adsorption weight change percentage ([4]; relative humidity 40%): 0.1%
1st desorption weight change percentage ([4]; relative humidity 40%): 0.3%
2nd adsorption weight change percentage ([4]; relative humidity 40%): 0.1%
2nd desorption weight change percentage ([4]; relative humidity 40%): 0.3%
1st adsorption weight change percentage ([4]; relative humidity 50%): 0.2%
2nd desorption weight change percentage ([4]; relative humidity 50%): 0.3%
1st adsorption weight change percentage ([4]; relative humidity 60%): 0.2%
2nd desorption weight change percentage ([4]; relative humidity 60%): 0.4%
1st adsorption weight change percentage ([4]; relative humidity 70%): 0.3%
2nd desorption weight change percentage ([4]; relative humidity 70%): 0.4%
1st adsorption weight change percentage ([4]; relative humidity 80%): 0.3%
2nd desorption weight change percentage ([4]; relative humidity 80%): 0.5%
1st adsorption weight change percentage ([4]; relative humidity 90%): 0.5%
2nd desorption weight change percentage ([4]; relative humidity 90%): 0.5%
1st adsorption weight change percentage ([4]; relative humidity 95%): 0.7%
2nd desorption weight change percentage ([4]; relative humidity 95%): 0.7%
XRPD after DVS test ([4]; after 40-0-95-0-40% RH): The crystal form did not change, see Figure 20b
moisture adsorbed (DVS) ([4]; under 40%RH-95%RH): 0.6% of moisture was adsorbed under 40%RH-95%RH, see Figure 20a
Notes (change of crystallinity) ([5]; pressed at 2 MPa for 5 min): No significant change in crystallinity
XRPD ([5]; pressed at 2 MPa for 5 min): Crystalline form G, see Figure 21a
Notes (change of crystallinity) ([5]; pressed at 5 MPa for 5 min): No significant change in crystallinity
XRPD ([5]; pressed at 5 MPa for 5 min): Crystalline form G, see Figure 21a
Notes (change of crystallinity) ([5]; pressed at 10 MPa for 5 min): No significant change in crystallinity
XRPD ([5]; pressed at 10 MPa for 5 min): Crystalline form G, see Figure 21a
change in crystallinity ([5]; tableted at 2 MPa, 5 MPa and 10 MPa pressures): no significant change in crystallinity was observed
